From ChEMBL document CHEMBL1155651, “New prenylated anthraquinones and xanthones from Vismia guineensis” (2000)

What was measured:
Type in all cases: functional, PBL
[1] = Antimitotic activity in human peripheral blood lymphocytes assessed as mitotic index at 25 uM
[2] = Antimitotic activity in human peripheral blood lymphocytes assessed as mitotic index at 1 uM
[3] = Antimitotic activity in human peripheral blood lymphocytes assessed as mitotic index at 0.5 uM

| Compound | Activity [1] [%] | Activity [2] [%] | Activity [3] [%] |
| --- | --- | --- | --- |
| COC(C)(C)CCC/C(C)=C/COc1cc(O)c2c(c1)Cc1cc(C)cc(O)c1C2=O | 49.9 | 48.7 | 47.4 |
| CN[C@H]1CCc2cc(OC)c(OC)c(OC)c2-c2ccc(OC)c(=O)cc21 [DEMECOLCINE] |  | 70.1 |  |
| C[C@]12CC[C@@H]3c4ccc(OC(=O)N(CCCl)CCCl)cc4CC[C@H]3[C@@H]1CC[C@@H]2O [ESTRAMUSTINE] |  | 78.7 |  |
